Measurements: the NIST ThermoML archive (doi:10.1016/j.jct.2009.06.016)
Values joined by “and” are separate entries in the source; they are usually repeats but may differ in a detail not shown here. Identical values can stand only once.

Test: xn = mol fraction of the nth substance listed
Conditions: 101 kPa, Liquid, Vibrating tube method

CCCOCC(C)O (stereo not drawn) [1-propoxy-2-propanol] + O
mass density
Conditions	283.15 K	288.15 K	293.15 K	298.15 K	303.15 K
x1 = 0.001639	999.31 kg/m3	998.703 kg/m3	997.77 kg/m3	996.607 kg/m3	995.166 kg/m3
x1 = 0.003265	999.009 kg/m3	998.36 kg/m3	997.378 kg/m3	996.203 kg/m3	994.729 kg/m3
x1 = 0.01049	998.189 kg/m3	997.309 kg/m3	996.156 kg/m3	994.754 kg/m3	993.101 kg/m3
x1 = 0.01741	997.871 kg/m3	996.708 kg/m3	995.295 kg/m3	993.639 kg/m3	991.738 kg/m3
x1 = 0.02413	997.617 kg/m3	996.172 kg/m3	994.434 kg/m3	992.449 kg/m3	990.242 kg/m3
x1 = 0.02492	997.584 kg/m3	996.099 kg/m3	994.315 kg/m3	992.281 kg/m3	990.035 kg/m3
x1 = 0.03341	997.009 kg/m3	994.916 kg/m3	992.599 kg/m3	990.099 kg/m3	987.376 kg/m3
x1 = 0.0411	995.626 kg/m3	993.032 kg/m3	990.295 kg/m3	987.401 kg/m3	984.348 kg/m3
x1 = 0.04904	993.374 kg/m3	990.531 kg/m3	987.469 kg/m3	984.302 kg/m3	981.013 kg/m3
x1 = 0.05896	990.231 kg/m3	987.111 kg/m3	983.811 kg/m3	980.443 kg/m3	976.913 kg/m3
x1 = 0.06919	987.019 kg/m3	983.629 kg/m3	980.171 kg/m3	976.629 kg/m3	972.832 kg/m3
x1 = 0.07722	984.1 kg/m3	980.908 kg/m3	977.347 kg/m3	973.676 kg/m3	969.873 kg/m3
x1 = 0.08896	980.8 kg/m3	977.203 kg/m3	973.523 kg/m3	969.756 kg/m3	965.792 kg/m3
x1 = 0.09833	977.885 kg/m3	974.328 kg/m3	970.577 kg/m3	966.718 kg/m3	962.723 kg/m3
x1 = 0.1083	975.142 kg/m3	971.439 kg/m3	967.62 kg/m3	963.724 kg/m3	959.684 kg/m3
x1 = 0.1182	972.498 kg/m3	968.762 kg/m3	964.864 kg/m3	960.927 kg/m3	956.826 kg/m3
x1 = 0.1249	970.842 kg/m3	967.03 kg/m3	963.131 kg/m3	959.154 kg/m3	955.036 kg/m3
x1 = 0.1283	969.927 kg/m3	966.142 kg/m3	962.218 kg/m3	958.25 kg/m3	954.135 kg/m3
x1 = 0.1365	967.946 kg/m3	964.14 kg/m3	960.182 kg/m3	956.19 kg/m3	952.054 kg/m3
x1 = 0.1475	965.216 kg/m3	961.573 kg/m3	957.6 kg/m3	953.581 kg/m3	949.414 kg/m3
x1 = 0.1677	961.137 kg/m3	957.197 kg/m3	953.147 kg/m3	949.056 kg/m3	944.898 kg/m3
x1 = 0.1955	955.28 kg/m3	951.825 kg/m3	947.746 kg/m3	943.61 kg/m3	939.419 kg/m3
x1 = 0.2281	950.34 kg/m3	946.219 kg/m3	942.051 kg/m3	937.893 kg/m3	933.693 kg/m3
x1 = 0.2743	943.61 kg/m3	939.47 kg/m3	935.34 kg/m3	931.11 kg/m3	926.81 kg/m3
x1 = 0.3208	937.609 kg/m3	933.429 kg/m3	929.158 kg/m3	924.917 kg/m3	920.58 kg/m3
x1 = 0.3483	934.321 kg/m3	930.247 kg/m3	926.15 kg/m3	921.878 kg/m3	917.532 kg/m3
x1 = 0.3738	931.91 kg/m3	927.69 kg/m3	923.45 kg/m3	919.12 kg/m3	914.74 kg/m3
x1 = 0.4214	927.214 kg/m3	922.877 kg/m3	918.572 kg/m3	914.335 kg/m3	909.931 kg/m3
x1 = 0.4787	922.45 kg/m3	918.2 kg/m3	913.81 kg/m3	909.35 kg/m3	904.97 kg/m3
x1 = 0.5257	918.715 kg/m3	914.413 kg/m3	910.011 kg/m3	905.586 kg/m3	901.122 kg/m3
x1 = 0.548	916.854 kg/m3	912.761 kg/m3	908.503 kg/m3	904.085 kg/m3	899.604 kg/m3
x1 = 0.5771	915.29 kg/m3	910.9 kg/m3	906.52 kg/m3	902.07 kg/m3	897.57 kg/m3
x1 = 0.5977	913.887 kg/m3	909.422 kg/m3	905.093 kg/m3	900.499 kg/m3	896.129 kg/m3
x1 = 0.6247	912.186 kg/m3	907.847 kg/m3	903.425 kg/m3	898.961 kg/m3	894.432 kg/m3
x1 = 0.6264	–	907.647 kg/m3	903.218 kg/m3	898.785 kg/m3	894.261 kg/m3
x1 = 0.6385	911.37 kg/m3	906.945 kg/m3	902.498 kg/m3	897.87 kg/m3	893.542 kg/m3
x1 = 0.672	909.401 kg/m3	905.017 kg/m3	900.577 kg/m3	896.108 kg/m3	891.567 kg/m3
x1 = 0.6758	–	904.871 kg/m3	900.301 kg/m3	895.81 kg/m3	891.293 kg/m3
x1 = 0.6793	909.018 kg/m3	904.571 kg/m3	900.121 kg/m3	895.632 kg/m3	891.142 kg/m3
x1 = 0.7192	906.894 kg/m3	902.407 kg/m3	897.954 kg/m3	893.432 kg/m3	888.909 kg/m3
x1 = 0.7272	906.317 kg/m3	901.907 kg/m3	897.467 kg/m3	892.945 kg/m3	888.391 kg/m3
x1 = 0.7448	905.495 kg/m3	901.061 kg/m3	896.614 kg/m3	892.14 kg/m3	887.56 kg/m3
x1 = 0.7589	904.809 kg/m3	900.364 kg/m3	895.887 kg/m3	891.371 kg/m3	886.848 kg/m3
x1 = 0.7682	903.977 kg/m3	899.934 kg/m3	895.456 kg/m3	890.967 kg/m3	886.382 kg/m3
x1 = 0.7858	903.51 kg/m3	899.08 kg/m3	894.6 kg/m3	890.07 kg/m3	885.47 kg/m3
x1 = 0.7981	902.909 kg/m3	898.495 kg/m3	894.001 kg/m3	889.483 kg/m3	884.923 kg/m3
x1 = 0.8224	901.51 kg/m3	897.287 kg/m3	892.828 kg/m3	888.311 kg/m3	883.721 kg/m3
x1 = 0.8398	901.029 kg/m3	896.637 kg/m3	891.636 kg/m3	887.602 kg/m3	882.984 kg/m3
x1 = 0.8588	900.07 kg/m3	895.641 kg/m3	891.133 kg/m3	886.589 kg/m3	882.007 kg/m3
x1 = 0.8792	898.865 kg/m3	894.921 kg/m3	890.346 kg/m3	885.821 kg/m3	881.196 kg/m3
x1 = 0.8796	899.334 kg/m3	894.851 kg/m3	890.337 kg/m3	885.871 kg/m3	881.204 kg/m3
x1 = 0.8993	898.371 kg/m3	893.936 kg/m3	889.399 kg/m3	884.854 kg/m3	880.259 kg/m3
x1 = 0.9197	897.715 kg/m3 and 897.195 kg/m3	893.212 kg/m3 and 893.204 kg/m3	888.659 kg/m3 and 888.679 kg/m3	884.155 kg/m3 and 884.109 kg/m3	879.548 kg/m3 and 879.479 kg/m3
x1 = 0.9388	896.775 kg/m3	892.326 kg/m3	887.803 kg/m3	883.236 kg/m3	878.623 kg/m3
x1 = 0.9486	896.411 kg/m3	891.949 kg/m3	887.413 kg/m3	882.854 kg/m3	878.219 kg/m3
x1 = 0.9609	895.933 kg/m3	891.451 kg/m3	886.918 kg/m3	882.36 kg/m3	877.745 kg/m3
x1 = 0.9628	896.008 kg/m3	891.604 kg/m3	887.059 kg/m3	882.424 kg/m3	877.865 kg/m3
x1 = 0.9716	895.539 kg/m3	891.059 kg/m3	886.524 kg/m3	881.962 kg/m3	877.362 kg/m3
x1 = 0.9798	895.261 kg/m3	890.77 kg/m3	886.193 kg/m3	881.641 kg/m3	876.998 kg/m3
x1 = 0.9818	895.15 kg/m3	890.664 kg/m3	886.123 kg/m3	881.551 kg/m3	876.955 kg/m3
x1 = 0.9919	894.781 kg/m3	890.294 kg/m3	885.746 kg/m3	881.183 kg/m3	876.546 kg/m3
x1 = 1	894.462 kg/m3	889.963 kg/m3	885.456 kg/m3	880.837 kg/m3	876.279 kg/m3
